In US20230002346A1, “NEW COMPOUNDS AND METHODS” (BenevolentAl Bio Limited, priority 2019, published 2023):
In brackets after ≈: the same amount, converted by molar mass.

Legend:
[1] = Kinetic aqueous solubility assay; format: physicochemical; conditions: aqueous buffer, kinetic from dmso stock, 0.05M potassium phosphate buffer pH 7.4, 250 μM spike, RT
Summary of the method: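 Compound added from DMSO stock into 0.05M potassium phosphate buffer pH 7.4 at 250 μM final, shaken 30 min at RT to induce precipitation (n=2). Appearance noted visually. Filtrate concentration determined by UV peak area against calibration standards.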

[2] = Rat PK profile (bioavailability, clearance, half-life); format: in vivo; conditions: male, Sprague Dawley, plasma, i.v. dose 0.5 mg/kg
Description: Male Sprague Dawley Rats 300-350 g (Charles River, UK) were group housed, n=3, under a 12 h light/dark cycle with food and water available ad libitum. At 17:00 on the day prior to dosing all food was removed. On the day of dosing animals were weighed, tail marked and dosed via oral gavage with compound at 3 mg/kg in a volume of 5 mL/kg. Animals were culled at 30 min, 1 h and 4 h post dose via intra-peritoneal administration of pentobarbital. Post mortem blood was withdrawn via cardiac puncture, and briefly stored in K2 EDTA blood tubes on ice before being spun at 14,000 g for 4 min at 4° C. Plasma was withdrawn into a 96 well plate, placed on dry ice and stored at −80° C. Brains were quickly dissected and placed on dry ice before storage at −80° C. Bioanalysis of plasma and brain samples is performed as detailed below. Methods were prepared with guidance from industry standard documents.^i,ii
A 10 mM DMSO stock is used to prepare spiking solutions of test compound in the range of 10-100,000 ng/mL in diluent (MeCN:water, 1;1). Calibration lines are prepared in control male Sprague-Dawley Rat plasma at known concentrations in the range of 1-10000 ng/mL by spiking 2.5 μL of calibration spiking solution into 25 μL control plasma. Experimental samples are thawed to RT and 25 μL aliquots are extracted alongside the calibration lines using protein precipitation (agitation for at least 5 min at RT with 400 μL of MeCN containing 25 ng/mL tolbutamide as an internal standard). Protein precipitates are separated from the extracted test compound by centrifugation at 4000 rpm for 5 min, 4° C. The resulting supernatants are diluted in a ratio of 1:2 with a relevant diluent (e.g. 0.1% formic acid in water or 1:1 MeOH:water). Samples are analysed by UPLC-MS/MS on either an API6500 QTrap or Waters 30 TQS mass spectrometer using previously optimised analytical MRM (multiple reaction monitoring) methods, specific to the test compound. The concentration of test compound in isolated samples is determined following analysis of the samples against the two replicates of the calibration line, injected before and after the sample set with an appropriate regression and weighting used. Only samples within 20% of the expected test concentration are included in the calibration line and any samples that fall outside of the limits of the calibration line will be deemed to be less than or above the limit of quantification (LLoQ/ALoQ).
Pharmacokinetic parameters such as bioavailability (% F), clearance (CL), half-life (T½) and volume of distribution are calculated by non-compartmental analysis using Phoenix Winnonlin 64 software (build 8.0). The bioavailability was calculated from p.o. dosed rats, whereas the clearance and half-life were calculated from i.v. dosed rats. Briefly, in vivo plasma concentrations, timepoints and dose values are imported into the software in a compatible format. Plasma concentration for each animal is plotted against time, and the elimination phase identified and selected. The area under the curve for each plot is calculated using a linear trapezoidal linear interpolation from which pharmacokinetic parameters can subsequently be determined. […] Compounds of the invention have much improved clearance (CL) and half-life (T½) compared to the reference examples.

[3] = test system: Salmonella typhimurium, strains TA98 and TA100; assay: Ames assay (Bacterial Reverse Mutation Test); format: cell-based; conditions: TA98 and TA100, presence and absence of S-9 mix, up to 5000 μg/plate
Description: Examples 50, 52 and 54 were tested, in vitro, for their ability to induce mutations in 2 histidine dependent auxotrophic mutants of Salmonella typhimurium, strains TA98 and TA100. The mutation screen was conducted using the plate incorporation method and was performed in both the presence and absence of S-9 mix (a liver post-mitochondrial fraction derived from the livers of Aroclor 1254 treated rats). The bacteria were exposed to the test items dissolved in DMSO, which was also the negative Control. The test items were tested up to the regulatory maximum dose level. The dose levels used were 5, 15, 50, 150, 500, 1500 or 5000 μg/plate, unless the highest treatment level of the test items was limited by solubility, or toxicity against the background bacterial lawn. Dose levels were expressed in terms of the free base.
There were no increases of 2-fold or greater in revertant numbers compared with negative Control values in either strain at any dose level in the presence or absence of S-9 mix, so Examples 50, 52 and 54 were not mutagenic in the Bacterial Reverse Mutation (i.e. Ames) Test under the conditions of this screen.

[4] = Brain to plasma (B:P) ratio in rat; format: in vivo, Sprague Dawley Rats; conditions: male, Sprague Dawley, iv, i.v. 0.5 mg/kg, 5% NMP in 30% HPBC in water, timepoints averaged 0.17-1 h

O=C(Nc1ccc(OC(F)(F)Cl)cc1)c1ccc(=O)n(-c2cncc(F)c2)c1 [Example 54, N-[4-[Chloro(difluoro)methoxy]phenyl]-1-(5-fluoro-3-pyridyl)-6-oxo-pyridine-3-carboxamide]
solubility at 30 min [1]: 170 µM (≈ 69.7 µg/mL)
clearance ([2]; iv): 4 mL/min/kg
half-life ([2]; iv, read-out: T½ (converted)): 7.6 h
bioavailability ([2]; po, p.o. dose 3 mg/kg): 97%
mutagenicity in the Bacterial Reverse Mutation (Ames) Test [3]: not mutagenic
Kp [4]: 0.53
